Assay results: US20250368649A1, “TETRAHYDROPYRIDOPYRIMIDINE PAN-KRAS INHIBITORS” (Mirati Therapeutics, Inc., priority 2022, published 2025)

Experiments:
[1] = biological target: KRas G12R (Homo sapiens, UniProt P01116, G12R); assay: biochemical; settings: Binding to KRas (IC50 nM) G12R, TR-FRET displacement, KRas G12R
[2] = biological target: KRas WT (Homo sapiens, UniProt P01116); assay: KRas binding assay (TR-FRET displacement), KRas WT; settings: single point, 10 nM compound
[3] = biological target: KRas G12A (Homo sapiens, UniProt P01116, G12A); type: binding; settings: single point, 10 nM compound, read-out: Binding to KRas (% inhibition at 10 nM) G12A
KRas G12A, sequence (P01116 1-169 isoform P01116-2 G12A): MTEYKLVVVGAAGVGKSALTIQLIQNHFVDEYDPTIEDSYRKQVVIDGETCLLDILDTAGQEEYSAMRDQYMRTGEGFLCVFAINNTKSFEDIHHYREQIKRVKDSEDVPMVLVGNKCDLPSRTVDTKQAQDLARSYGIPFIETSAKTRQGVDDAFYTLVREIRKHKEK

[4] = system: PSN1 cells; assay: Inhibition of KRas-mediated phosphorylation of ERK (Cisbio HTRF pERK), PSN1 cells; type: cell-based; settings: Homo sapiens, PSN1, 3 h, 3 hour compound incubation, Cisbio pERK HTRF
Method in brief: (§1)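 On the first day, plate 6,000 cells into each well in RPMI medium with 10% fetal bovine serum.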

[5] = system: HCT116 cells; assay: Inhibition of KRas-mediated phosphorylation of ERK (Cisbio HTRF pERK), HCT116 cells; type: cell-based; settings: Homo sapiens; for inhibition at 0.1 µM: HCT-116, single point at 100 nM, 3 hrs compound incubation; for IC50: HCT-116, 3 h, 3 hr compound incubation, Cisbio pERK HTRF
[6] = system: A549 cells; assay: Inhibition of KRas-mediated phosphorylation of ERK (Cisbio HTRF pERK), A549 cells; type: cell-based; settings: Homo sapiens; for inhibition at 0.1 µM: single point at 100 nM, 3 hrs compound incubation; for IC50: A549, 3 h, 3 hr compound incubation, Cisbio pERK HTRF
[7] = biological target: KRas G13D (Homo sapiens, UniProt P01116, G13D); type: binding; settings: single point, 10 nM compound, read-out: Binding to KRas (% inhibition at 10 nM) G13D
KRas G13D, sequence (P01116 1-169 isoform P01116-2 G13D): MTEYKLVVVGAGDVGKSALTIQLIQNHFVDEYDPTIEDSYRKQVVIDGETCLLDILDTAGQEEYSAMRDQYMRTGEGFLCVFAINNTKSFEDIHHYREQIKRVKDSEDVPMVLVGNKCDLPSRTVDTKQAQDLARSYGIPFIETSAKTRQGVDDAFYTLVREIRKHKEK

[8] = system: H727 cells; assay: Inhibition of KRas-mediated phosphorylation of ERK (Cisbio HTRF pERK), H727 cells; type: cell-based; settings: Homo sapiens; for IC50: NCI-H727, 3 h, 3 hr compound incubation, Cisbio pERK HTRF; for inhibition at 0.1 µM: NCI-H727, single point at 100 nM, 3 hrs compound incubation
[9] = system: H460 cells; assay: Inhibition of KRas-mediated phosphorylation of ERK (Cisbio HTRF pERK), H460 cells; type: cell-based; settings: Homo sapiens; for inhibition at 0.1 µM: NCI-H460, single point at 100 nM, 3 hrs compound incubation; for IC50: NCI-H460, 3 h, 3 hr compound incubation, Cisbio pERK HTRF
[10] = biological target: KRas G12V (Homo sapiens, UniProt P01116, G12V); assay: biochemical; settings: Binding to KRas (IC50 nM) G12V, TR-FRET displacement, KRas G12V
KRas G12V, sequence (P01116 1-169 isoform P01116-2 G12V): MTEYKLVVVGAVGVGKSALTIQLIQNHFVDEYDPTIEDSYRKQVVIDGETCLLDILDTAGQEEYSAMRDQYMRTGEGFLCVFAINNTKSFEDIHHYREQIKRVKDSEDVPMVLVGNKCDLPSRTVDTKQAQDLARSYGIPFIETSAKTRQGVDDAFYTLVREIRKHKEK

[11] = biological target: KRas G12S (Homo sapiens, UniProt P01116, G12S); type: binding; settings: single point, 10 nM compound, read-out: Binding to KRas (% inhibition at 10 nM) G12S
KRas G12S, sequence (P01116 1-169 isoform P01116-2 G12S): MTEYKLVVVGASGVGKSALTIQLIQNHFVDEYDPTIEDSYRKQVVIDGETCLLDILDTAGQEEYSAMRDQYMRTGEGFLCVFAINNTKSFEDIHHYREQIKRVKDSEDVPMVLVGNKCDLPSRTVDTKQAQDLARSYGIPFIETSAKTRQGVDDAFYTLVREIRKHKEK

[12] = system: MKN1 cells; assay: Inhibition of KRas-mediated phosphorylation of ERK (Cisbio HTRF pERK), MKN1 cells; type: cell-based; settings: Homo sapiens, MKN-1, 3 hour compound incubation, Cisbio pERK HTRF
Method in brief: as §1

[13] = biological target: KRas Q61H (Homo sapiens, UniProt P01116, Q61H); assay: KRas binding assay (TR-FRET displacement), KRas Q61H; settings: single point, 10 nM compound
KRas Q61H, sequence (P01116 1-169 isoform P01116-2 Q61H): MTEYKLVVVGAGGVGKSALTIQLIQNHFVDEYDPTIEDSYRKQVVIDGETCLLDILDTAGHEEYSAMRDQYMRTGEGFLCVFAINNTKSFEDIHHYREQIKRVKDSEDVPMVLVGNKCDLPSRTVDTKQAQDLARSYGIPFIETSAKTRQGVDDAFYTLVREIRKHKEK

[14] = system: H358 cells; assay: Inhibition of KRas-mediated phosphorylation of ERK (Cisbio HTRF pERK), H358 cells; type: cell-based; settings: Homo sapiens; for inhibition at 0.1 µM: NCI-H358, single point at 100 nM, 3 hrs compound incubation; for IC50: NCI-H358, 3 h, 3 hr compound incubation, Cisbio pERK HTRF
[15] = system: ASPC1 cells; assay: Inhibition of KRas-mediated phosphorylation of ERK (Cisbio HTRF pERK), ASPC1 cells; type: cell-based; settings: Homo sapiens, AsPC-1 cells; for IC50: ASPC1, 3 h, 3 hr compound incubation, Cisbio pERK HTRF; for inhibition at 0.1 µM: ASPC1, single point at 100 nM, 3 hrs compound incubation
[16] = biological target: KRas G12C (Homo sapiens, UniProt P01116, G12C); type: binding; settings: single point, 10 nM compound, read-out: Binding to KRas (% inhibition at 10 nM) G12C
KRas G12C, sequence (P01116 1-169 isoform P01116-2 G12C): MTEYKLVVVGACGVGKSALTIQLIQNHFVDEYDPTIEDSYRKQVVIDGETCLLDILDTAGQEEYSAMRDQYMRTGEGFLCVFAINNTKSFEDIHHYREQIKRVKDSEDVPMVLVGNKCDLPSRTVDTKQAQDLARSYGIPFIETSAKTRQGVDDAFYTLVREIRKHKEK

[17] = biological target: KRas G12D (Homo sapiens, UniProt P01116, G12D); assay: biochemical; settings: Binding to KRas (IC50 nM) G12D, TR-FRET displacement, KRas G12D
KRas G12D, sequence (P01116 1-169 isoform P01116-2 G12D): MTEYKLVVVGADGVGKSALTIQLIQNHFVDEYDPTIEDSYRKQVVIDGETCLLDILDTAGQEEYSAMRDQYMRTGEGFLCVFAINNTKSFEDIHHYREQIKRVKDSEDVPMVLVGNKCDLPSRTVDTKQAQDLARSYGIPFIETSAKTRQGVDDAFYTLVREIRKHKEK

KRas G12R, sequence (P01116 1-169 isoform P01116-2 G12R): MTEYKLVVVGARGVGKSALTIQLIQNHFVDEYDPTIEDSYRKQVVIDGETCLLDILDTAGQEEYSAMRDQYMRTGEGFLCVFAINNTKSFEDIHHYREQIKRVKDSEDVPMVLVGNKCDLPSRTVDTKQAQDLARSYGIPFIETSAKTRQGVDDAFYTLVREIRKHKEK
KRas WT, sequence (P01116 1-169 isoform P01116-2): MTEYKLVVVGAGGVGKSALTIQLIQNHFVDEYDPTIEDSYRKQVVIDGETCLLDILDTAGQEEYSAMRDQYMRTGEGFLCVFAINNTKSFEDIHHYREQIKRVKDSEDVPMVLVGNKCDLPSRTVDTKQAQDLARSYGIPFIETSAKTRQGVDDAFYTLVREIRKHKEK

Compound | IC50 [1] [nM] | inhibition at 0.01 µM [2] [%] | inhibition at 0.01 µM [3] [%] | IC50 [4] [nM] | inhibition at 0.1 µM [5] [%] | inhibition at 0.1 µM [6] [%] | inhibition at 0.01 µM [7] [%] | IC50 [8] [nM] | inhibition at 0.1 µM [9] [%] | IC50 [10] [nM] | inhibition at 0.01 µM [11] [%] | IC50 [12] [nM] | inhibition at 0.01 µM [13] [%] | inhibition at 0.1 µM [14] [%] | IC50 [15] [nM] | inhibition at 0.01 µM [16] [%] | IC50 [17] [nM] | IC50 [5] [nM] | IC50 [6] [nM] | IC50 [9] [nM] | other results
CCc1c(F)ccc2cc(O)cc(N3CCc4c(nc(OC[C@@]56CCCN5C[C@H](F)C6)nc4N4CCCn5nc(C(=O)N6CC7CCC(C6)N7)cc5C4)C3)c12 [Example 265, 3,8-diazabicyclo[3.2.1]octan-3-yl(5-(7-(8-ethyl-7-fluoro-3-hydroxynaphthalen-1-yl)-2-(((2R,7aS)-2-fluorohexahydro-1H-pyrrolizin-7a-yl)methoxy)-5,6,7,8-tetrahydropyrido[3,4-d]pyrimidin-4-yl)-5,6,7,8-tetrahydro-4H-pyrazolo[1,5-a][1,4]diazepin-2-yl)methanone] | < 2 | 98 | 97 | > 10000 | 16 | 32 | 99 | 217 | -4 | < 2 | 99 | 23.1 | 97 | 60 | 31 | 100 | < 2 |  |  |  | inhibition at 0.1 µM [8]: 40%; inhibition at 0.1 µM [15]: 63%
CCc1c(F)ccc2cc(O)cc(N3CCc4c(nc(OC[C@@]56CCCN5C[C@H](F)C6)nc4N4CCCn5nc(C(=O)N6C[C@@H]7C[C@H](C6)[C@H](O)C7)cc5C4)C3)c12 [Example 268, (5-(7-(8-ethyl-7-fluoro-3-hydroxynaphthalen-1-yl)-2-(((2R,7aS)-2-fluorohexahydro-1H-pyrrolizin-7a-yl)methoxy)-5,6,7,8-tetrahydropyrido[3,4-d]pyrimidin-4-yl)-5,6,7,8-tetrahydro-4H-pyrazolo[1,5-a][1,4]diazepin-2-yl)((1R,5R,6R)-6-hydroxy-3-azabicyclo[3.2.1]octan-3-yl)methanone] | < 2 | 98 | 98 | > 10000 |  | 67 | 99 | 32 |  | < 2 | 99 | 8.9 | 99 | 104 | 18 | 99 | < 2 | 218 | 83 | 56 | inhibition at 0.1 µM [8]: 49%; IC50 [14]: 7 nM; inhibition at 0.1 µM [15]: 84%
CCc1c(F)ccc2cc(O)cc(N3CCc4c(nc(OC[C@@]56CCCN5C[C@H](F)C6)nc4N4CCCn5nc(C(=O)N(C)C)c(COC)c5C4)C3)c12 [Example 269, 5-(7-(8-ethyl-7-fluoro-3-hydroxynaphthalen-1-yl)-2-(((2R,7aS)-2-fluorohexahydro-1H-pyrrolizin-7a-yl)methoxy)-5,6,7,8-tetrahydropyrido[3,4-d]pyrimidin-4-yl)-3-(methoxymethyl)-N,N-dimethyl-5,6,7,8-tetrahydro-4H-pyrazolo[1,5-a][1,4]diazepine-2-carboxamide] | < 2 | 99 | 99 | 9880 |  | 93 | 99 | 5 | 89 | < 2 | 100 | 1.4 | 98 | 100 | 3 | 100 | < 2 | 25 | 2 | 8 | IC50 [14]: 1 nM
CCc1c(F)ccc2cc(O)cc(N3CCc4c(nc(OC[C@@]56CCCN5C[C@H](F)C6)nc4N4CCCn5nc(C(=O)N6C[C@H](C)N[C@@H](C)C6)cc5C4)C3)c12 [Example 282, ((3S,5S)-3,5-dimethylpiperazin-1-yl)(5-(7-(8-ethyl-7-fluoro-3-hydroxynaphthalen-1-yl)-2-(((2R,7aS)-2-fluorohexahydro-1H-pyrrolizin-7a-yl)methoxy)-5,6,7,8-tetrahydropyrido[3,4-d]pyrimidin-4-yl)-5,6,7,8-tetrahydro-4H-pyrazolo[1,5-a][1,4]diazepin-2-yl)methanone] | < 2 | 98 | 98 | > 10000 | 12 | 37 | 99 | 128 | 35 | < 2 | 100 | 35.1 | 99 | 88 | 9 | 99 | < 2 | 172 | 53 | 93 | IC50 [14]: 16 nM
CCc1c(F)ccc2cc(O)cc(N3CCc4c(nc(OC[C@@]56CCCN5C[C@H](F)C6)nc4N4CCCn5nc(C(=O)N6CC7CC(C6)N7)cc5C4)C3)c12 [Example 283, 3,6-diazabicyclo[3.1.1]heptan-3-yl(5-(7-(8-ethyl-7-fluoro-3-hydroxynaphthalen-1-yl)-2-(((2R,7aS)-2-fluorohexahydro-1H-pyrrolizin-7a-yl)methoxy)-5,6,7,8-tetrahydropyrido[3,4-d]pyrimidin-4-yl)-5 6,7,8-tetrahydro-4Hi-pyrazolo[1,5-a][1,4]diazepin-2-yl)methanone] | < 2 | 95 | 97 | > 10000 | -8 | 40 | 98 | 106 | 18 | < 2 | 99 | 155 | 97 | 48 | 22 | 99 | < 2 |  |  |  | 
CCc1c(F)ccc2cc(O)cc(N3CCc4c(nc(OC[C@@]56CCCN5C[C@H](F)C6)nc4N4CCCn5nnc(Br)c5C4)C3)c12 [Example 284, 4-(4-(3-bromo-7,8-dihydro-4H-[1,2,3]triazolo[1,5-a][1,4]diazepin-5(6H)-yl)-2-(((2R,7aS)-2-fluorohexahydro-1H-pyrrolizin-7a-yl)methoxy)-5,6-dihydropyrido[3,4-d]pyrimidin-7(8H)-yl)-5-ethyl-6-fluoronaphthalen-2-ol] | < 2 | 88 | 88 | > 10000 | 27 | 66 | 90 | 21 | 53 | < 2 | 96 | 30.5 | 89 | 89 | 3 | 95 | < 2 | 157 | 22 | 64 | IC50 [14]: 10 nM
